From US20110313044A1, “Polymorphs of Suberoylanilide Hydroxamic Acid” (URQUIMA S.A., priority 2010, published 2011)
Converted amounts (≈) assume the structure as drawn.

What was measured:
[1] = Physical stability of crystalline forms at room temperature (PXRD, DSC characterisation)
Text: The crystalline products obtained have been characterised by XPRD (FIG. 1 and Table 1) and DSC (FIG. 2).

[2] = physchem; settings: thermodynamic from solid
[3] = Solubility test Form α vs Form I; settings: for solubility: thermodynamic from solid
[4] = Hygroscopicity test; format: physicochemical

**Q.** With `O=C(CCCCCCC(=O)Nc1ccccc1)NO` [Form II, suberoylanilide hydroxamic acid] as the compound, how does the Polymorph stability [1] read?
**A.** unstable at room temperature

**Q.** Which solubility ([2]; aqueous buffer) does the source give for `O=C(CCCCCCC(=O)Nc1ccccc1)NO` [Form I, suberoylanilide hydroxamic acid] here?
**A.** 0.1 mg/mL (≈ 0.378 mM)

**Q.** What about the solubility ([2]; organic solvent or mixture) of the same compound?
**A.** 21.8 mg/mL (≈ 82.5 mM)

**Q.** What does the source list for `O=C(CCCCCCC(=O)Nc1ccccc1)NO` [Form α, suberoylanilide hydroxamic acid]?
**A.** solubility ([3]; HCl 2M, aqueous buffer): 0.19 mg/mL (≈ 0.719 mM); Solubility versus Form I ([3]; methanol and HCl 2M, in words): higher solubility; solubility ([3]; methanol, organic solvent or mixture): 30 mg/mL (≈ 113 mM); Hygroscopicity [4]: non-hygroscopic; Polymorph stability [1]: stable at room temperature

**Q.** For `O=C(CCCCCCC(=O)Nc1ccccc1)NO` [Form III, suberoylanilide hydroxamic acid], which Polymorph stability [1] is on record?
**A.** stable at room temperature
